In article PMC5666514 (Chemical Science, 2015):
Like-named read-outs stand apart in the source and are kept apart here. *1 amine or outer side, *2 acyl side, *3 side chain or, on linkers, in order; H or OH if unused. Where a SMILES comes first, the peptide text is derived from it. Bridges are numbered along the chain shown (N, C = ends). Roman numbers before positions name the chains, in order. [ ]: non-standard residue; d: D form. The star is where a group is joined. 5FAM = O=C1OC2(c3ccc(O)cc3Oc3cc(O)ccc32)c2ccc(C(=O)*)cc21; Quinoxaline2carbonyl = O=C(c1cnc2ccccc2n1)*; Ethylenediamine = C(CN[*:2])N[*:1]; NMeV = CN[C@H](C(=O)O)C(C)C; NMeAbu = CC[C@H](NC)C(=O)O; NMeC = CN[C@@H](CS)C(=O)O; Abu = CC[C@H](N)C(=O)O; Dap = NC[C@H](N)C(=O)O

Experiments:
[1] = test system: HeLa cervical adenocarcinoma cells; test: cells; type: cell-based, human
Experimental: (§1) The twelve synthesized compounds were evaluated in vitro using the following four human cancer cell lines: cervical adenocarcinoma (HeLa), lung carcinoma (A-549), breast adenocarcinoma (SK-BR-3) and colon adenocarcinoma (HT-29). Cells were treated for 24 h with various concentrations of the compounds, and their cytotoxic activity was then assessed using the [3-(4,5-dimethylthiazol-2-yl)-2,5-diphenyltetrazolium] bromide (MTT) assay.[29] Analysis of the dose-response data obtained yielded IC50 (50% inhibitory concentration) values, which are detailed in Table 1.
(§2) Normally growing cells were plated at 5 × 10^3 cells per well into 96-well plates and incubated for 24 h at 37 °C to allow attachment to the surface. Samples were then added dissolved in a DMSO–PBS vehicle (less than 1% in culture medium) at a range of concentrations. Drugs were run in triplicate or greater and control wells contained appropriate percentages of vehicle. After 24 h of exposure, the antitumor effect was measured using a solution of MTT, which is bioreduced by viable cells into formazan. The formed crystals were solubilized using DMSO and the amount of formazan was measured by reading the absorbance at 570 nm. The absorbance of wells containing only the MTT reagent (the plate blank) was subtracted from all wells.
(§3) The IC50 values were determined by dose response curve analysis and statistical analysis using GraphPad Prism software version 5.0a. […]
(§4) mM L-glutamine and antibiotics.
(§5) in a humidified atmosphere containing 5% CO2. For sub-culturing, cells were detached from
(§6) 5 mL of fresh medium preheated at 37 °C. Cellular density was determined in a Neubauer

[2] = test system: A-549 lung carcinoma cells; test: cells; type: cell-based, human
Experimental: as §1, §2, §3, §4, §5, §6

[3] = test system: HT-29 colon adenocarcinoma cells; test: cells; type: cell-based, human
Experimental: as §1, §2, §3, §4, §5, §6

[4] = test system: SK-BR-3 breast adenocarcinoma cells; test: cells; type: cell-based, human
Experimental: as §1, §2, §3, §4, §5, §6

[5] = test system: DNA (footprinting substrates MS1 and HexA); test: DNase I footprinting; type: binding; settings: MS1 and HexA fragments; RZ compounds up to 500 μM (RZ2 up to 1 mM)
Description: compounds are 500 M and 100 M; the concentrations for echinomycin are 10 M and 5 M.

[6] = test system: red blood cells; settings: human RBCs, PBS, 1 h at 37 °C, concentrations up to 100 μM, absorbance 560 nm, n=3
[7] = MTT assay, 24 h exposure, run in triplicate or greater, read-out: IC50, Cervix HeLa
[8] = MTT assay, 24 h exposure, run in triplicate or greater, read-out: IC50, Lung A-549
[9] = MTT assay, 24 h exposure, run in triplicate or greater, read-out: IC50, Colon HT-29
[10] = MTT assay, 24 h exposure, run in triplicate or greater, read-out: IC50, Breast SK-BR-3

Molecule | IC50 ([2]; 24 h) | IC50 ([3]; 24 h) | IC50 ([1]; 24 h) | IC50 ([4]; 24 h) | also measured
CC[C@H](NC(=O)[C@H](CNC(=O)c1ccc2c(c1)C(=O)OC21c2ccc(O)cc2Oc2cc(O)ccc21)NC(=O)c1cnc2ccccc2n1)C(=O)N[C@H](C(=O)N[C@H](C(=O)N1CCC[C@@H]1C(=O)NCC(=O)N[C@H](C(=O)N[C@H](C(=O)N[C@@H](CC)C(=O)NCCNC(=O)c1cnc2ccccc2n1)C(C)C)C(C)C)C(C)C)C(C)C [RZ2CF] (Quinoxaline2carbonyl-[Dap](5FAM)[Abu]VV[dP]GVV[Abu]-{Ethylenediamine-Quinoxaline2carbonyl}) |  |  |  |  | IC50 [1, 7]: 16.7 µM
COc1cccc2c1C(=O)c1c(O)c3c(c(O)c1C2=O)C[C@@](O)(C(=O)CO)C[C@@H]3O[C@H]1C[C@H](N)[C@H](O)[C@H](C)O1 [Doxorubicin, reference compound] |  |  |  |  | IC50 ([2]; Homo sapiens, A549, MTT assay, 24 h exposure, run in triplicate or greater, read-out: IC50, Lung A-549): 0.6 µM; IC50 ([3]; Homo sapiens, HT-29, MTT assay, 24 h exposure, run in triplicate or greater, read-out: IC50, Colon HT-29): 8.9 µM; IC50 ([1]; Homo sapiens, HeLa, MTT assay, 24 h exposure, run in triplicate or greater, read-out: IC50, Cervix HeLa): 5.4 µM; IC50 ([4]; Homo sapiens, SK-BR-3, MTT assay, 24 h exposure, run in triplicate or greater, read-out: IC50, Breast SK-BR-3): 0.5 µM
CC[C@@H](C(=O)N(C)[C@H](C(=O)N[C@H](C(=O)N1CCC[C@@H]1C(=O)NCC(=O)N[C@H](C(=O)N(C)[C@H](C(=O)N(C)[C@@H](CC)C(=O)NCCNC(=O)c1cnc2ccccc2n1)C(C)C)[C@@H](C)O)[C@@H](C)O)C(C)C)N(C)C(=O)[C@H](CO)NC(=O)c1cnc2ccccc2n1 [RZ5] (Quinoxaline2carbonyl-S[NMeAbu][NMeV]T[dP]GT[NMeV][NMeAbu]-{Ethylenediamine-Quinoxaline2carbonyl}) | 70.7 µM | 84.8 µM | > 100 µM | 84.6 µM | 
CC[C@H](NC(=O)[C@H](CO)NC(=O)c1cnc2ccccc2n1)C(=O)N[C@H](C(=O)N[C@H](C(=O)N1CCC[C@@H]1C(=O)NCC(=O)N[C@H](C(=O)N[C@H](C(=O)N[C@@H](CC)C(=O)NCCNC(=O)c1cnc2ccccc2n1)C(C)C)[C@@H](C)O)[C@@H](C)O)C(C)C [RZ6] (Quinoxaline2carbonyl-S[Abu]VT[dP]GTV[Abu]-{Ethylenediamine-Quinoxaline2carbonyl}) | 84.5 µM | 83.1 µM | 45.6 µM | 55.3 µM | 
CC[C@@H](C(=O)NCCNC(=O)c1cnc2ccccc2n1)N(C)C(=O)[C@H](C(C)C)N(C)C(=O)[C@@H](NC(=O)CNC(=O)[C@H]1CCCN1C(=O)[C@@H](NC(=O)[C@H](C(C)C)N(C)C(=O)[C@H](CC)N(C)C(=O)[C@@H](CO)NC(=O)c1cnc2ccccc2n1)[C@@H](C)O)[C@@H](C)O [RZ7] (Quinoxaline2carbonyl-[dS][NMeAbu][NMeV]T[dP]GT[NMeV][NMeAbu]-{Ethylenediamine-Quinoxaline2carbonyl}) | 72.8 µM | 90.7 µM | 84.5 µM | > 100 µM | 
CC(C)[C@H]1C(=O)OC[C@@H](NC(=O)c2cnc3ccccc3n2)C(=O)N[C@@H](C)C(=O)N(C)[C@H]2CSSC[C@@H](C(=O)N1C)N(C)C(=O)[C@H](C)NC(=O)[C@H](NC(=O)c1cnc3ccccc3n1)COC(=O)[C@H](C(C)C)N(C)C2=O [Triostin A, reference compound] (I: Quinoxaline2carbonyl-[dS]A[NMeC][NMeV] / II: Quinoxaline2carbonyl-[dS]A[NMeC][NMeV]; ester I:1-II:C, I:C-II:1; disulfide I:3-II:3) |  |  |  |  | IC50 [2, 8]: 23.5 µM; IC50 [3, 9]: 24.7 µM; IC50 [1, 7]: 18.8 µM; IC50 [4, 10]: 23.1 µM
CC[C@H](C)[C@H](NC(=O)CNC(=O)[C@H]1CCCN1C(=O)[C@@H](NC(=O)[C@H](C(C)C)N(C)C(=O)[C@H](CC)N(C)C(=O)[C@H](CO)NC(=O)c1cnc2ccccc2n1)[C@@H](C)CC)C(=O)N(C)[C@H](C(=O)N(C)[C@@H](CC)C(=O)NCCNC(=O)c1cnc2ccccc2n1)C(C)C [RZ9] (Quinoxaline2carbonyl-S[NMeAbu][NMeV]I[dP]GI[NMeV][NMeAbu]-{Ethylenediamine-Quinoxaline2carbonyl}) | 60.9 µM | 84.4 µM | 50.9 µM | 90.6 µM | 
CC[C@H](NC(=O)[C@@H](NC(=O)[C@@H](NC(=O)CNC(=O)[C@H]1CCCN1C(=O)[C@@H](NC(=O)[C@@H](NC(=O)[C@H](CC)NC(=O)[C@@H](CO)NC(=O)c1cnc2ccccc2n1)C(C)C)[C@@H](C)O)[C@@H](C)O)C(C)C)C(=O)NCCNC(=O)c1cnc2ccccc2n1 [RZ8] (Quinoxaline2carbonyl-[dS][Abu]VT[dP]GTV[Abu]-{Ethylenediamine-Quinoxaline2carbonyl}) | 23.4 µM | 39.8 µM | 37.1 µM | 44.5 µM | 
echinomycin |  |  |  |  | DNase I footprint (DNA binding) [5]: Clear footprints
CC[C@H](NC(=O)[C@@H](NC(=O)[C@@H](NC(=O)CNC(=O)[C@H]1CCCN1C(=O)[C@@H](NC(=O)[C@@H](NC(=O)[C@H](CC)NC(=O)[C@@H](CO)NC(=O)c1cnc2ccccc2n1)C(C)C)[C@@H](C)CC)[C@@H](C)CC)C(C)C)C(=O)NCCNC(=O)c1cnc2ccccc2n1 [RZ12] (Quinoxaline2carbonyl-[dS][Abu]VI[dP]GIV[Abu]-{Ethylenediamine-Quinoxaline2carbonyl}) | 82.2 µM | > 100 µM | 55.4 µM | 71.6 µM | 
CC[C@@H](C(=O)N(C)[C@H](C(=O)N[C@H](C(=O)N1CCC[C@@H]1C(=O)NCC(=O)N[C@H](C(=O)N(C)[C@H](C(=O)N(C)[C@@H](CC)C(=O)NCCNC(=O)c1cnc2ccccc2n1)C(C)C)C(C)C)C(C)C)C(C)C)N(C)C(=O)[C@H](CO)NC(=O)c1cnc2ccccc2n1 [RZ1] (Quinoxaline2carbonyl-S[NMeAbu][NMeV]V[dP]GV[NMeV][NMeAbu]-{Ethylenediamine-Quinoxaline2carbonyl}) | 51.2 µM | 88.4 µM | 42.2 µM | 96.7 µM | 
CC[C@H](NC(=O)[C@@H](NC(=O)[C@@H](NC(=O)CNC(=O)[C@H]1CCCN1C(=O)[C@@H](NC(=O)[C@@H](NC(=O)[C@H](CC)NC(=O)[C@@H](CO)NC(=O)c1cnc2ccccc2n1)C(C)C)C(C)C)C(C)C)C(C)C)C(=O)NCCNC(=O)c1cnc2ccccc2n1 [RZ4] (Quinoxaline2carbonyl-[dS][Abu]VV[dP]GVV[Abu]-{Ethylenediamine-Quinoxaline2carbonyl}) |  |  |  |  | IC50 [2, 8]: 34.9 µM; IC50 [3, 9]: 75 µM; IC50 [1, 7]: 30.9 µM; IC50 [4, 10]: > 100 µM
CC[C@H](NC(=O)[C@H](CO)NC(=O)c1cnc2ccccc2n1)C(=O)N[C@H](C(=O)N[C@H](C(=O)N1CCC[C@@H]1C(=O)NCC(=O)N[C@H](C(=O)N[C@H](C(=O)N[C@@H](CC)C(=O)NCCNC(=O)c1cnc2ccccc2n1)C(C)C)[C@@H](C)CC)[C@@H](C)CC)C(C)C [RZ10] (Quinoxaline2carbonyl-S[Abu]VI[dP]GIV[Abu]-{Ethylenediamine-Quinoxaline2carbonyl}) | 26.8 µM | 53.8 µM | 14.1 µM | 62.1 µM | 
CC[C@@H](C(=O)NCCNC(=O)c1cnc2ccccc2n1)N(C)C(=O)[C@H](C(C)C)N(C)C(=O)[C@@H](NC(=O)CNC(=O)[C@H]1CCCN1C(=O)[C@@H](NC(=O)[C@H](C(C)C)N(C)C(=O)[C@H](CC)N(C)C(=O)[C@@H](CO)NC(=O)c1cnc2ccccc2n1)C(C)C)C(C)C [RZ3] (Quinoxaline2carbonyl-[dS][NMeAbu][NMeV]V[dP]GV[NMeV][NMeAbu]-{Ethylenediamine-Quinoxaline2carbonyl}) | 65.8 µM | 72.3 µM | 93.8 µM | 98.1 µM | 
CC[C@H](NC(=O)[C@H](CO)NC(=O)c1cnc2ccccc2n1)C(=O)N[C@H](C(=O)N[C@H](C(=O)N1CCC[C@@H]1C(=O)NCC(=O)N[C@H](C(=O)N[C@H](C(=O)N[C@@H](CC)C(=O)NCCNC(=O)c1cnc2ccccc2n1)C(C)C)C(C)C)C(C)C)C(C)C [RZ2] (Quinoxaline2carbonyl-S[Abu]VV[dP]GVV[Abu]-{Ethylenediamine-Quinoxaline2carbonyl}) |  |  |  |  | IC50 [2, 8]: 11.9 µM; IC50 [3, 9]: 6.8 µM; IC50 [1, 7]: 2.7 µM; IC50 [4, 10]: 5.4 µM; hemolysis (hemoglobin release from red blood cells) [6]: not hemolytic
CC[C@H](C)[C@H](NC(=O)CNC(=O)[C@H]1CCCN1C(=O)[C@@H](NC(=O)[C@H](C(C)C)N(C)C(=O)[C@H](CC)N(C)C(=O)[C@@H](CO)NC(=O)c1cnc2ccccc2n1)[C@@H](C)CC)C(=O)N(C)[C@H](C(=O)N(C)[C@@H](CC)C(=O)NCCNC(=O)c1cnc2ccccc2n1)C(C)C [RZ11] (Quinoxaline2carbonyl-[dS][NMeAbu][NMeV]I[dP]GI[NMeV][NMeAbu]-{Ethylenediamine-Quinoxaline2carbonyl}) | 96.3 µM | 64.7 µM | 24.3 µM | 78.9 µM | 
